The source of these data is patent publication US11273150B2, “Compositions and methods for the treatment of presbyopia” (priority 2018, dated 2022).

Data set [1] in a line: Stability of aceclidine at 25° C. and 4° C. by HPLC (Example 10). The class given is physicochemical. How it is done: 20 samples of the above composition were divided evenly and stored at 25° C. and 4° C. Prior to storage, initial concentrations of aceclidine were measured using […] (“HPLC”). The amount of aceclidine in each solution was calculated by the area under the principal peak compared to a reference solution of aceclidine. Samples were then subject to storage for 3 months. Aceclidine measurements were taken at 1, 2 and 3 months.

Data set [2] has as its system eye. Kind of data set: Effect of concentration of aceclidine, brimonidine, guanfacine, fadolmidine, tropicamide and additives (Example 3). The format is in vivo, human. How it is done: All percentages are w/v. Scores for nasal congestion, stinging initial, stinging, 3 min, redness initial, redness 15 min, whitening, pain and overall are out of 4.
“pt” reflects size of print materials, 4 being equivalent to 20/20 vision and 3 to 20/15 vision.
Baseline vision was 20.20 both eyes for distance; 20.70 right eye unaided for near; 20.80 left eye for near (best @ 16″).
D/C stands for discontinued after eye washing due to intolerable stinging.
All baseline vision data was based on vision corrected with distance contact lenses. Near vision was noted by subject as outstanding from 8 to 10 inches to the horizon at 30 minutes after installation for AB4T and AB6T.
AB4T and AB6T were repeated both monocularly and binocularly. Substantial improvement in depth perception, near point acuity to 3 pt (20.15), and near point distance (8″, 20.20) was noted when both eyes were treated vs. monocular treatment.

Data set [3] can be described thus: Aceclidine total related substances after storage with or without Mylar lined pouches (Example 18). The class given is physicochemical. The protocol:
Aceclidine total related substances was recorded at 1, 2, 3 and 6 months.
Mylar® was used as the source of biaxially-oriented polyethylene terephthalate. Mylar is a registered trademark of and available from DuPont Teijin Films US Limited.

Data set [4] has as its system presbyopic subjects. Kind of data set: Effect of aceclidine on vision of presbyopic subjects aged 47 to 67 years (Example 1). The class given is in vivo, human. The following applies: for Effect: duration of effect; for L Post Dist: left eye distance vision; for L Post Dist / L Post Near / R Post Dist / R Post Near: Post Gtt 15″; for R Post Dist: right eye distance vision. How it is done:
As aceclidine is an […], the clinical effectiveness may vary with different ratios. For the present studies a nearly exact 50:50 ratio of stereoisomers was measured as best determined by polarimetry.
After administration of the composition all subjects experienced an improvement in their near vision that lasted from 7 to 12 hours.

A short description of data set [5]: Aceclidine potency following storage (Example 19). The class given is physicochemical.
Data set [6] concerns eye. The data set can be described thus: Clinical observations stated in the description (miosis, duration, blur, redness, anterior chamber). The class given is in vivo, human.
Data set [7] concerns emmetrope over the age of 45. Kind of data set: Effects of pilocarpine and aceclidine with or without tropicamide and carrier on near and distance vision (FIG. 1). The class given is in vivo, human. The source says:
Subject is an emmetrope over the age of 45 with a baseline near vision of 20.100 and baseline distance vision of 20.20. Topical administration to the eye of 1% w/v pilocarpine in saline solution results in an improvement of near vision to 20.40 (8a), however this improvement comes at the expense of a reduction in distance vision to 20.100 (8b). […] A proper drug carrier can also have a beneficial effect.

The subject of data set [8] is eye. The data set can be described thus: Efficacy and comfort of various nonionic surfactants (Example 15, Table 10). Set-up: species or system human. The settings on record: in vivo. The source says: Duration was excellent for each nonionic surfactant tested.
Data set [9] has as its system eye. The settings on record: cited from earlier work.
The mark [10] stands for this setting: Pouched (5 C.), first listing (r9).
[11] abbreviates: Pouched (5 C.), second listing (r12).
The mark [12] stands for this setting: Pouched (25 C.), first listing (r10).
[13] abbreviates: Pouched (25 C.), second listing (r13).
Where [14] appears, read: aceclidine 1.1% w/v + 0.125% w/v tropicamide, subjects 4 and 5.
The mark [15] stands for this setting: aceclidine 1.5% w/v in HPβCD/CMC/NaCl/BAK, one line per subject.
Where [16] appears, read: Pouched (5 C.), first group (initial 99.70%).
[17] abbreviates: Pouched (5 C.), second group (initial 99.60%).
Setting [18] is: Pouched (25 C.), first group (initial 99.70%).
Setting [19] is: Pouched (25 C.), second group (initial 99.60%).

Values joined by “and” are separate entries in the source; they are usually repeats but may differ in a detail not shown here. Identical values can stand only once. Some results are limits rather than exact numbers.

Regarding `CC(=O)OC1CN2CCC1CC2` (stereo not drawn) [Aceclidine, aceclidine], the “Stability of Aceclidine, 1 month” value in [1] (4° C., Example 10 composition) worked out at 93%; in [1] (25° C., Example 10 composition), 92%. Moreover, the “Stability of Aceclidine, 2 months” value in [1] (4° C., Example 10 composition) came out at 92%; in data set [1] (25° C., Example 10 composition), 75%. The “Stability of Aceclidine, 3 months” value in data set [1] (4° C., Example 10 composition) was 88%; in data set [1] (25° C., Example 10 composition), 50%. For the same compound, the “Stability of Aceclidine, Initial” value was 100% in data set [1] (4° C., Example 10 composition) and 100% in data set [1] (25° C., aceclidine 1.50%, tropicamide 0.042%, polyoxyl 40 stearate 5.5%, mannitol 2.5%, citrate 3 mM, pH 4.75). Besides, in [2] (aceclidine 1.55% w/v), the “corrected near and distance vision to 20.20 or better, duration” value is on record as “at least 6 hours”. Further, the noticeable affect lasting result in [2] (aceclidine 1.55% w/v) is given as “about 7.5 hours”. Also, the “size of the pupil” value in data set [2] (aceclidine 1.55% w/v, 30 minutes after topical instillation) was “about 1.63 mm”. The near vision improvement in data set [2] (aceclidine lowered to 1.25% w/v (not shown)) is given as 20.25-20.30. Also, the “Aceclidine Total Related Substances, One Month Result” value in data set [3] (setting [10]) was found to be 0.54%; in data set [3] (setting [11]), 0.50%; in data set [3] (setting [12]) it was 0.55%; in data set [3] (setting [13]), 0.74%; in data set [3] (Pouched (−20 C.)) it was 0.74%; in [3] (Unpouched (5 C.)), 0.55%. Besides, in data set [3] (Unpouched (25 C.)), the “Aceclidine Total Related Substances, One Month Result” value was determined as 0.58%. Besides, the “Aceclidine Total Related Substances, Six Month Result” value in data set [3] (setting [10]) worked out at 0.47%; in data set [3] (setting [11]), 0.00%; in [3] (setting [12]), 0.36%; in data set [3] (setting [13]), 0.00%; in data set [3] (Pouched (−20 C.)), 0.00%; in [3] (Unpouched (5 C.)), 0.49%. Further, in data set [3] (Unpouched (25 C.)), the “Aceclidine Total Related Substances, Six Month Result” value amounted to 4.87%. Besides, the “Aceclidine Total Related Substances, Three Month Result” value is recorded as 0.35% in data set [3] (setting [10]); 0.18% in data set [3] (setting [11]); 1.26% in [3] (setting [12]); 0.31% in data set [3] (setting [13]); 0.25% in [3] (Pouched (−20 C.)); 0.05% in [3] (Unpouched (5 C.)). For the same compound, the “Aceclidine Total Related Substances, Three Month Result” value in [3] (Unpouched (25 C.)) is 1.39%. Also, the “Aceclidine Total Related Substances, Total % Change” value in data set [3] (setting [10]) was 0.06%; in data set [3] (setting [11]), −0.41%; in [3] (setting [12]), −0.05% and 0.05%; in data set [3] (setting [13]), −0.41%; in data set [3] (Pouched (−20 C.)) it was −0.41%; in [3] (Unpouched (5 C.)) it was 0.08%. Further, the “Aceclidine Total Related Substances, Total % Change” value in data set [3] (Unpouched (25 C.)) stood at 4.46%. For the same compound, the “Aceclidine Total Related Substances, Two Month Result” value stood at 0.51% in data set [3] (Unpouched (5 C.)) and 1.45% in data set [3] (Unpouched (25 C.)). Also, the “Aceclidine Total Related Substances, Initial Result” value in data set [3] (Unpouched (5 C.) line, initial) is recorded as 0.41%. Moreover, the “Effect” value is 7.00 h and 12.00 h in data set [4] (setting [14]); 8.00 h (4×) and 9.00 h in data set [4] (setting [15]). In addition, the “L Post Dist” value in data set [4] (setting [14]) was 20.20 and 20.15; in [4] (setting [15]) it was 20.20 (2×) and 20.30 and 20.25 (2×). Moreover, the “L Post Near” value in data set [4] (left eye near vision (15 inches), aceclidine 1.5% w/v in HPβCD/CMC/NaCl/BAK, one line per subject) is 20.15 (3×) and 20.30 and 20.20; in [4] (left eye near vision, aceclidine 1.1% w/v + 0.125% w/v tropicamide, subjects 4 and 5), 20.25 and 20.15. The “R Post Dist” value in [4] (aceclidine 1.1% w/v + 0.125% w/v tropicamide, same carrier, subjects 4 and 5) is 20.20 and 20.15; in data set [4] (setting [15]), 20.20 (3×) and 20.25 (2×). The “R Post Near” value was 20.15 (3×) and 20.20 and 20.25 in data set [4] (right eye near vision (15 inches), aceclidine 1.5% w/v in HPβCD/CMC/NaCl/BAK, one line per subject); 20.25 and 20.20 in [4] (right eye near vision, aceclidine 1.1% w/v + 0.125% w/v tropicamide, subjects 4 and 5). Further, the “Aceclidine Potency, One Month Result” value is reported as 100.0% in [5] (setting [16]); 99.5% in [5] (setting [17]); 98.4% in [5] (setting [18]); 103.0% in data set [5] (setting [19]); 98.5% in [5] (Pouched (−25 C.)); 99.3% in data set [5] (Unpouched (5 C.)). Further, the “Aceclidine Potency, One Month Result” value in data set [5] (Unpouched (25 C.)) amounted to 98.2%. In addition, the “Aceclidine Potency, Six Month Result” value is 100.8% in [5] (setting [16]); 102.2% in data set [5] (setting [17]); 94.9% in [5] (setting [18]); 96.0% in [5] (setting [19]); 103.1% in [5] (Pouched (−25 C.)); 100.5% in data set [5] (Unpouched (5 C.)). Also, the “Aceclidine Potency, Six Month Result” value in data set [5] (Unpouched (25 C.)) came out at 97.7%. The “Aceclidine Potency, Three Month Result” value in [5] (setting [16]) came to 99.7%; in data set [5] (setting [17]), 102.3%; in [5] (setting [18]), 97.5%; in [5] (setting [19]), 99.0%; in data set [5] (Pouched (−25 C.)), 101.4%; in data set [5] (Unpouched (5 C.)) it was 100.0%. In addition, the “Aceclidine Potency, Three Month Result” value in data set [5] (Unpouched (25 C.)) was found to be 98.2%. For the same compound, the “Percent Change Between Initial and Six Month Results” value in [5] (setting [16]) was 1.1%; in data set [5] (setting [17]) it was 2.6%; in data set [5] (setting [18]), −4.8%; in [5] (setting [19]), 3.6%; in data set [5] (Pouched (−25 C.)), 3.5%; in data set [5] (Unpouched (5 C.)) it was 0.8%. In addition, in [5] (Unpouched (25 C.)), the “Percent Change Between Initial and Six Month Results” value is recorded as −2.0%. Besides, the “Aceclidine Potency, Initial Result” value is recorded as 99.60% in [5] (Pouched (−25 C.) line, initial of second group) and 99.70% in [5] (Unpouched (5 C.) line, initial of first group). Besides, the “Aceclidine Potency, Two Month Result” value is 102.0% in [5] (Unpouched (5 C.)) and 101.9% in data set [5] (Unpouched (25 C.)). The anterior chamber shallowing in [6] (aceclidine with further inclusion of a cycloplegic agent) was determined as 0.04 mm. The “extended time period of near vision improvement” value in data set [7] (1.55% w/v aceclidine in saline solution) is 6 h. The distance vision entry in data set [7] (1.55% w/v aceclidine in saline solution, baseline 20.20) was “without any effect on the baseline distance vision”. Besides, the near vision in data set [7] (1.55% w/v aceclidine in saline solution, baseline near 20.100) is on record as 20.40; in data set [7] (aceclidine + 0.042% w/v tropicamide in the carrier) it was 20.15; in [7] (aceclidine in carrier (5.5% HPβCD, 0.75% CMC, 0.25% NaCl, 0.01% BAK), better than), more than 20.20.

Turning to Polyoxyl 35 castor oil, in data set [8], the “Redness 1 hr” value amounted to 0.25 and the Stinging is reported as 0.

For Poloxamer 188, in data set [8], the “Redness 1 hr” value is listed as 0.25- and the Stinging is 0-2.

Turning to Polysorbate 80, in [8], the “Redness 1 hr” value worked out at 0.5 and the Stinging was 0.25.

As to Tyloxapol, in data set [8], the “Redness 1 hr” value is 0.25- and the Stinging was 0-2.

Turning to Poloxamer 407, in data set [8], the “Redness 1 hr” value amounted to 1 and the Stinging turned out to be 0.5.

Regarding `Brc1c(NC2=NCCN2)ccc2nccnc12` [brimonidine], the “rebound redness, patients” value in data set [9] (brimonidine 0.20% w/v (Alphagan®) twice daily) is on record as 25%. The “tachyphylaxis of pupil modulation, treated subjects” value in [9] (brimonidine 0.20% w/v topically for night vision, within four weeks of use, almost) is given as approximately 100%.

As to `CC[C@@H]1C(=O)OC[C@@H]1Cc1cncn1C` [pilocarpine], in data set [6] (pilocarpine instilled monocularly), the distance blur is 2-3 lines. For the same compound, the pupil size in data set [6] (upon instillation of 1.0% pilocarpine, or larger in most subjects) is not below 2.3 mm.
